Test results from ChEMBL document CHEMBL5120890, “Untapped Pharmaceutical Potential of 4,5,4'-Trihydroxy-3,3'-dimethoxybibenzyl for Regulating Obesity: A Cell-Based Study with a Focus on Terminal Differentiation in Adipogenesis” (J Nat Prod, 2022).
Calls of active or inactive are those of the source. The calls are words filed in the database; no cut-off is given here.

Legend:
3T3-L1 [1] = assay: Down regulation of LPL mRNA expression in mouse 3T3-L1 cells in early differentiation at 0.5 to 5 uM after 8 days by RT-qPCR analysis; assay type: functional, cell-based; conditions: dose 0.5-5 µM, time 8.0 day
3T3-L1 [2] = assay: Upregulation of p21 protein expression in mouse 3T3-L1 cells at 0.5 to 5 uM after 18 hrs by western blot analysis; assay type: functional, cell-based; conditions: dose 0.5-5 µM
3T3-L1 [3] = assay: Down regulation of FAS mRNA expression in mouse 3T3-L1 cells in maturation at 0.5 to 5 uM after 10 days by RT-qPCR analysis; assay type: functional, cell-based; conditions: dose 0.5-5 µM, time 10.0 day
[4] = Cytotoxicity against human PCS-210-010 pre-adipocytes assessed as reduction in cell viability at >=25 uM after 48 hrs by MTT assay; assay type: toxicity, cell-based; conditions: pcs-210-010, 48 h
PCS-210-010 [5] = assay: Inhibition of preadipocyte differentiation in human PCS-210-010 cells assessed as increase in glycerol release in early differentiation at 0.5 to 5 uM incubated for 8 days by colorimetric assay; assay type: functional, cell-based; conditions: dose 0.5-5 µM, time 8.0 day, DDE = dose-dependent effect
3T3-L1 [6] = assay: Down regulation of PL1N1 mRNA expression in mouse 3T3-L1 cells in maturation at 0.5 to 5 uM after 10 days by RT-qPCR analysis; assay type: functional, cell-based; conditions: dose 0.5-5 µM, time 10.0 day
3T3-L1 [7] = assay: Down regulation of FAS mRNA expression in mouse 3T3-L1 cells in early differentiation at 0.5 to 5 uM after 8 days by RT-qPCR analysis; assay type: functional, cell-based; conditions: dose 0.5-5 µM, time 8.0 day
3T3-L1 [8] = assay: Down regulation of FAS protein expression in mouse 3T3-L1 cells in maturation at 0.5 to 5 uM after 10 days by western blot analysis; assay type: functional, cell-based; conditions: dose 0.5-5 µM, time 10.0 day
3T3-L1 [9] = assay: Down regulation of CDK6 protein expression in mouse 3T3-L1 cells at 0.5 to 5 uM after 18 hrs by western blot analysis; assay type: functional, cell-based; conditions: dose 0.5-5 µM
3T3-L1 [10] = assay: Down regulation of PLIN1 protein expression in mouse 3T3-L1 cells in early differentiation at 0.5 to 5 uM after 8 days by western blot analysis; assay type: functional, cell-based; conditions: dose 0.5-5 µM, time 8.0 day
3T3-L1 [11] = assay: Inhibition of preadipocyte differentiation in mouse 3T3-L1 cells assessed as reduction in triglyceride accumulation in maturation at 0.5 to 5 uM incubated for 8 days by colorimetric assay; assay type: functional, cell-based; conditions: dose 0.5-5 µM, time 8.0 day, DDE = dose-dependent effect
3T3-L1 [12] = assay: Down regulation of LPL protein expression in mouse 3T3-L1 cells in early differentiation at 0.5 to 5 uM after 8 days by western blot analysis; assay type: functional, cell-based; conditions: dose 0.5-5 µM, time 8.0 day
3T3-L1 [13] = assay: Down regulation of LPL protein expression in mouse 3T3-L1 cells in maturation at 0.5 to 5 uM after 10 days by western blot analysis; assay type: functional, cell-based; conditions: dose 0.5-5 µM, time 10.0 day
[14] = Cytotoxicity against human PCS-210-010 pre-adipocytes assessed as reduction in cell viability at >=10 uM after 48 hrs by MTT assay; assay type: toxicity, cell-based; conditions: pcs-210-010, 48 h
[15] = biological target: 5'-AMP-activated protein kinase (Mus musculus) (UniProt Q5EG47+Q8BRK8+Q6PAM0+O54950+Q91WG5+Q9R078+Q8BGM7); assay: Activation of AMPK in mouse 3T3-L1 cells assessed as increase in AMPKalpha phosphorylation in early differentiation at 0.5 to 5 uM after 48 hrs by Western blot analysis; assay type: cell-based; conditions: filed as activator, dose 0.5-5 µM
[16] = Cytotoxicity against human PCS-210-010 pre-adipocytes assessed as reduction in cell viability after 48 hrs by MTT assay; assay type: toxicity, cell-based
[17] = Cytotoxicity against human PCS-210-010 adipocytes assessed as reduction in cell viability after 48 hrs by MTT assay; assay type: toxicity, cell-based
3T3-L1 [18] = assay: Down regulation of C/EBpalpha mRNA expression in mouse 3T3-L1 cells at 0.5 to 5 uM after 48 hrs by RT-qPCR analysis; assay type: functional, cell-based; conditions: dose 0.5-5 µM, DDE = dose-dependent effect
3T3-L1 [19] = assay: Down regulation of PPARG protein expression in mouse 3T3-L1 cells at 0.5 to 5 uM after 48 hrs by western blot analysis; assay type: functional, cell-based; conditions: dose 0.5-5 µM, DDE = dose-dependent effect
[20] = (§1) Cytotoxicity against mouse 3T3-L1 adipocytes assessed as reduction in cell viability after 48 hrs by MTT assay; assay type: toxicity, cell-based; conditions: 3T3-L1 adipocytes
3T3-L1 [21] = assay: as §1; assay type: toxicity, cell-based; conditions: 3t3-l1, 48 h, time 48 hrs
3T3-L1 [22] = assay: Down regulation of adiponectin mRNA expression in mouse 3T3-L1 cells in early differentiation at 0.5 to 5 uM after 8 days by RT-qPCR analysis; assay type: functional, cell-based; conditions: dose 0.5-5 µM, time 8.0 day
3T3-L1 [23] = assay: Cytotoxicity against mouse 3T3-L1 pre-adipocytes assessed as reduction in cell viability at >=10 uM after 48 hrs by MTT assay; assay type: toxicity, cell-based; conditions: 3t3-l1, 48 h
3T3-L1 [24] = assay: Down regulation of PPARG mRNA expression in mouse 3T3-L1 cells at 0.5 to 5 uM after 48 hrs by RT-qPCR analysis; assay type: functional, cell-based; conditions: dose 0.5-5 µM, DDE = dose-dependent effect
3T3-L1 [25] = assay: Activation of AMPK-ACC signalling pathway in mouse 3T3-L1 cells assessed as increase in ACC phosphorylation in early differentiation at 0.5 to 5 uM after 48 hrs by Western blot analysis; assay type: cell-based; conditions: filed as activator, dose 0.5-5 µM
3T3-L1 [26] = assay: Inhibition of preadipocyte differentiation in mouse 3T3-L1 cells assessed as reduction in lipid droplet accumulation in early differentiation at 0.5 to 5 uM incubated for 8 days by Oil Red O staining based inverted optical microscopic analysis; assay type: functional, cell-based; conditions: dose 0.5-5 µM, time 8.0 day
3T3-L1 [27] = assay: Down regulation of SREBP1 mRNA expression in mouse 3T3-L1 cells at 0.5 to 5 uM after 48 hrs by RT-qPCR analysis; assay type: functional, cell-based; conditions: dose 0.5-5 µM, DDE = dose-dependent effect
3T3-L1 [28] = assay: Down regulation of FABP4 mRNA expression in mouse 3T3-L1 cells in early differentiation at 0.5 to 5 uM after 8 days by RT-qPCR analysis; assay type: functional, cell-based; conditions: dose 0.5-5 µM, time 8.0 day
[29] = biological target: RAC-alpha serine/threonine-protein kinase (Mus musculus) (UniProt P31750); assay: Inhibition of AKT in mouse 3T3-L1 cells assessed as reduction in AKT phosphorylation in early differentiation at 0.5 to 5 uM after 48 hrs by Western blot analysis; assay type: cell-based; conditions: dose 0.5-5 µM
PCS-210-010 [30] = assay: Induction of apoptosis in human PCS-210-010 adipocytes at 0.5 to 5 uM after 48 hrs by PI/Hoechst 33342 staining based fluorescence microscopic analysis; assay type: functional, cell-based; conditions: dose 0.5-5 µM
3T3-L1 [31] = assay: Cytotoxicity against mouse 3T3-L1 pre-adipocytes assessed as reduction in cell viability at >=25 uM after 48 hrs by MTT assay; assay type: toxicity, cell-based; conditions: 3t3-l1, 48 h
3T3-L1 [32] = assay: Inhibition of preadipocyte differentiation in mouse 3T3-L1 cells assessed as increase in glycerol release in early differentiation at 0.5 to 5 uM incubated for 8 days by colorimetric assay; assay type: functional, cell-based; conditions: dose 0.5-5 µM, time 8.0 day, DDE = dose-dependent effect
3T3-L1 [33] = assay: Down regulation of SREBP1 protein expression in mouse 3T3-L1 cells at 0.5 to 5 uM after 48 hrs by western blot analysis; assay type: functional, cell-based; conditions: dose 0.5-5 µM, DDE = dose-dependent effect
3T3-L1 [34] = assay: Inhibition of preadipocyte differentiation in mouse 3T3-L1 cells assessed as reduction in triglyceride accumulation in early differentiation at 0.5 to 5 uM incubated for 8 days by colorimetric assay; assay type: functional, cell-based; conditions: dose 0.5-5 µM, time 8.0 day, DDE = dose-dependent effect
3T3-L1 [35] = assay: Down regulation of adiponectin protein expression in mouse 3T3-L1 cells in maturation at 0.5 to 5 uM after 10 days by western blot analysis; assay type: functional, cell-based; conditions: dose 0.5-5 µM, time 10.0 day
3T3-L1 [36] = assay: Down regulation of PL1N1 protein expression in mouse 3T3-L1 cells in maturation at 0.5 to 5 uM after 10 days by western blot analysis; assay type: functional, cell-based; conditions: dose 0.5-5 µM, time 10.0 day

RAC-alpha serine/threonine-protein kinase (Mus musculus), sequence (P31750 whole entry): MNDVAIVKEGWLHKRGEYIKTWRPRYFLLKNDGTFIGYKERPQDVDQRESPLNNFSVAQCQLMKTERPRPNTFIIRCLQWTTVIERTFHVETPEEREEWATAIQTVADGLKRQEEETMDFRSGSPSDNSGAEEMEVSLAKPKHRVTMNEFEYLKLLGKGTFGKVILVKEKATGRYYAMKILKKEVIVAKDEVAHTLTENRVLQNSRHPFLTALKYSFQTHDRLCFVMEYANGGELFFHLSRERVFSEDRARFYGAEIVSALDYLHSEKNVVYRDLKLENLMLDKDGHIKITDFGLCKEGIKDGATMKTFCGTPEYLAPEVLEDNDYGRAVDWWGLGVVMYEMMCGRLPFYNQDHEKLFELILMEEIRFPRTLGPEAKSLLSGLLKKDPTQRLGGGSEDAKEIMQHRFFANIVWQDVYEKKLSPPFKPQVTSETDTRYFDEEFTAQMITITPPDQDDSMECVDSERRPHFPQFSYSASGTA

For `COc1cc(CCc2cc(O)c(O)c(OC)c2)ccc1O`, the Activity (3T3-L1 [1]) was “Active”, the Activity (3T3-L1 [2]) was “Active” and the Activity (3T3-L1 [3]) was “Active”. For the same compound, the Activity [4] was “Toxic”, the inhibition (PCS-210-010 [5]) was “Dde” and the Activity (3T3-L1 [6]) was “Active”. For the same compound, the Activity (3T3-L1 [7]) was “Active”, the Activity (3T3-L1 [8]) was “Active” and the Activity (3T3-L1 [9]) was “Active”. For the same compound, the Activity (3T3-L1 [10]) was “Active”, the inhibition (3T3-L1 [11]) was “Dde” and the Activity (3T3-L1 [12]) was “Active”. The Activity (3T3-L1 [13]) was “Active”, the Activity [14] was “Toxic” and the Activity [15] was “Active”. The IC50 at 48 h ([16]; PCS-210-010 pre-adipocytes) was 34.6 µM, the Activity ([16]; pcs-210-010, 48 h, time 48 hrs) was “Toxic” and the IC50 at 48 h ([17]; PCS-210-010 adipocytes) was 71.9 µM. For the same compound, the Activity ([17]; pcs-210-010, 48 h, time 48 hrs) was “Toxic”, the Activity (3T3-L1 [18]) was “Dde” and the Activity (3T3-L1 [19]) was “Dde”. For the same compound, the IC50 at 48 h [20] was 72.4 µM, the Activity (3T3-L1 [21]) was “Toxic” and the Activity (3T3-L1 [22]) was “Active”. For the same compound, the Activity (3T3-L1 [23]) was “Toxic”, the Activity (3T3-L1 [24]) was “Dde” and the Activity (3T3-L1 [25]) was “Active”. The inhibition (3T3-L1 [26]) was “Active”, the Activity (3T3-L1 [27]) was “Dde” and the Activity (3T3-L1 [28]) was “Active”. For the same compound, the inhibition [29] was “Active”, the Activity (PCS-210-010 [30]) was “Non-Toxic” and the Activity (3T3-L1 [31]) was “Toxic”. The inhibition (3T3-L1 [32]) was “Dde”, the Activity (3T3-L1 [33]) was “Dde” and the inhibition (3T3-L1 [34]) was “Dde”. The Activity (3T3-L1 [35]) was “Active” and the Activity (3T3-L1 [36]) was “Active”.
